Blank lines part the entries; values can stand above or below the compound they belong to.
Key:
[1] = target: T1, Mineralocorticoid receptor (Homo sapiens, UniProt P08235); assay: Antagonist activity at Gal4-fused human MR LBD (672 to 984 residues) expressed in HEK293T cells assessed as inhibition of aldosterone-induced transactivation activity after 24 hrs by luciferase reporter gene assay; type: cell-based, HEK-293T
T1 sequence (P08235 whole entry): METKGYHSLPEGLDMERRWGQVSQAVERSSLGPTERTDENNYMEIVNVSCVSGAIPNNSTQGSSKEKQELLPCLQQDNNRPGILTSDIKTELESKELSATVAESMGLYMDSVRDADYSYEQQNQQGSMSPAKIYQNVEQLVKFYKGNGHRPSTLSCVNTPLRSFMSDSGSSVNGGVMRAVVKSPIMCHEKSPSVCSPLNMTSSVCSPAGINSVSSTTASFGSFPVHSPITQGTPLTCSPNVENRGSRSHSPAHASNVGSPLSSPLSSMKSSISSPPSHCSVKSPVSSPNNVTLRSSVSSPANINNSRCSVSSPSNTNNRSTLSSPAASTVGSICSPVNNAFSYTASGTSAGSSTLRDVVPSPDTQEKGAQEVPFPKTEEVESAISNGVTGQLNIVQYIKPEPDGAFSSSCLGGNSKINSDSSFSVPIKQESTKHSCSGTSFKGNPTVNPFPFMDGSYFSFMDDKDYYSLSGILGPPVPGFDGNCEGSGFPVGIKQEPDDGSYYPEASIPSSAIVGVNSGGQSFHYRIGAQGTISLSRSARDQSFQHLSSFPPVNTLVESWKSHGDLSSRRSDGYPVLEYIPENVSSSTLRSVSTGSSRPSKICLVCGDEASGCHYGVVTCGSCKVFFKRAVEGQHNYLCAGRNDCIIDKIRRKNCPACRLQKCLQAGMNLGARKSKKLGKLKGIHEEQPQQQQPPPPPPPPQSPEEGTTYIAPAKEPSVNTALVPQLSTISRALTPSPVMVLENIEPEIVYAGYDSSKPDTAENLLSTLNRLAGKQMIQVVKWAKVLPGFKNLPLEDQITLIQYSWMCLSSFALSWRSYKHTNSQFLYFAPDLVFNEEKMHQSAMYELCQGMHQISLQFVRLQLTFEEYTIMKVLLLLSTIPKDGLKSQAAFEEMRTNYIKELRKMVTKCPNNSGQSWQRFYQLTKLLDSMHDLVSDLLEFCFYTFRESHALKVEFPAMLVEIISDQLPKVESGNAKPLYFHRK

[2] = organism: Homo sapiens; assay: Ratio of IC50 for Gal4-fused human AR expressed in CHO-K1 cells to IC50 for Gal4-fused human MR expressed in CHO-K1 cells; type: cell-based
[3] = target: T1, Mineralocorticoid receptor; assay: Antagonist activity at Gal4-fused human MR LBD (734 to 985 residues) expressed in CHO-K1 cells after 5 to 6 hrs by luciferase reporter gene assay; type: cell-based
[4] = tested on: Rattus norvegicus; assay: In vivo antagonist activity at MR in rat assessed as inhibition aldosterone-induced decrease in urinary sodium/potassium ratio at 30 mg/kg, po after 20 hrs; type: functional
[5] = tested on: Rattus norvegicus; assay: In vivo antagonist activity at MR in rat assessed as inhibition aldosterone-induced decrease in urinary sodium/potassium ratio at 30 mg/kg, po after 8 hrs; type: functional
[6] = target: T1, Mineralocorticoid receptor; assay: Displacement of [3H]-Aldosterone from MR overexpressed in human 293 cells measured after 2 hrs by Microbeta scintillation counting method; type: cell-based
[7] = target: T1, Mineralocorticoid receptor; assay: Antagonist activity at human MR overexpressed in HEK293 cells assessed as inhibition of aldosterone-induced response measured after overnight incubation by luciferase reporter gene assay; type: cell-based
[8] = tested on: Rattus norvegicus; assay: In vivo antagonist activity at MR in rat assessed as inhibition aldosterone-induced decrease in urinary sodium/potassium ratio at 3 mg/kg, po after 20 hrs; type: functional
[9] = target: T1, Mineralocorticoid receptor; assay: Displacement of [3H]-cortisol from MR overexpressed in human 293 cells measured after 2 hrs by Microbeta scintillation counting method; type: cell-based

SMILES: CC(=O)S[C@@H]1CC2=CC(=O)CC[C@]2(C)[C@H]2CC[C@@]3(C)[C@@H](CC[C@@]34CCC(=O)O4)[C@H]12 [SPIRONOLACTONE]
inhibition in vivo at 30 mg/kg [4]: < 20%

SMILES: COC(=O)[C@@H]1CC2=CC(=O)CC[C@]2(C)[C@@]23O[C@@H]2C[C@@]2(C)[C@@H](CC[C@@]24CCC(=O)O4)[C@H]13 [EPLERENONE]
inhibition in vivo at 30 mg/kg [5]: 8%

SMILES: C[C@H](CN1CCOCC1)n1/c(=N\C#N)[nH]c2cc(/C=C3\c4ccccc4COc4cc(F)ccc43)ccc21
Ki [6]: 0.4 nM | IC50 [7]: 21 nM

SMILES: Cc1c(C(=O)Nc2ccc(S(C)(=O)=O)cc2)cn(CCO)c1-c1ccccc1C(F)(F)F (single isomer, unassigned; atropisomer 2)
inhibition in vivo at 3 mg/kg [8]: 56%

SMILES: O=c1[nH]c2cc(/C=C3\c4ccccc4COc4cc(F)ccc43)ccc2n1[C@@H]1C[C@@H]2COCCN2C1
Ki [9]: 9 nM

The next lines start with results.

IC50 [1]: < 2 nM
SMILES: CC(=O)Oc1ccc(CCc2ccc3c(c2)NC(=O)CO3)c(C)c1

IC50 [3]: 28 to 43 nM
SMILES: CCOC(=O)C1=C(C)NC(C)=C(C(C)=O)[C@H]1c1cccc2c(=O)cc(C)oc12
Ratio IC50 [2]: 160

— ChEMBL document CHEMBL4007392, “Modulating Mineralocorticoid Receptor with Non-steroidal Antagonists. New Opportunities for the Development of Potent and Selective Ligands without Off-Target Side Effects” (J Med Chem, 2017)
